Measured values as given in PMC12062876, “Efficient constitution of a library of rotenoid analogs active against Trypanosoma cruzi from a digitalized plant extract collection” (RSC Advances, 2025).
Read-outs that look alike come from different tables or passages of the source.

How the values were obtained:
T. cruzi amastigotes [1] = test: Activity against intracellular T. cruzi amastigotes; format: cell-based, Trypanosoma cruzi; details: for Selectivity index: SI = IC50 cytotoxicity/IC50 against T. cruzi; for IC50: Trypanosoma cruzi, read-out: IC50 T. cruzi amastigotes; for activity against T. cruzi (in words): intracellular amastigotes
Excerpt: The bioactivity of isolated compounds against intracellular T. cruzi amastigotes grown in rat L6 […] is presented in Table 1. […] Rotenone and deguelin are known to be strong mitochondrial complex I (also known as NADH:ubiquinone oxidoreductase) inhibitors,[43–45] while different activities between closely related rotenoids (rotenone, 5′-α-epirotenone, and 5′-β-epirotenone) has already been shown. […] The variation in activity observed on our rapidly generated series of structural analogs points in the same direction. As shown in Fig. 3 and Table 1, the cyclic and bent form of the rotenoid at the B/C ring junction is essential for activity, since compounds 40 and 41 were not active.
The pure compounds activity was assessed against T. cruzi amastigotes as described in ref. [27].

[2] = Cytotoxicity assay: L-6 cells; format: cell-based; details: rat skeletal myoblast (L6 cells); means of two independent assays
Description: The pure compounds cytotoxicity was assessed against L6 cells as described in ref. [27].

Haemonchus contortus = details: cited from earlier work
[3] = tested on: L6 cells (rat skeletal myoblast); details: commercial standards; cited from earlier work
T. cruzi amastigotes [4] = details: commercial standards; cited from earlier work
[5] = intracellular amastigotes grown in rat L6 cells, means of two independent assays

Compound | Selectivity index (T. cruzi amastigotes [1]) | IC50 (T. cruzi amastigotes [1]; [5]) [µM] | IC50 [2] [µM] | IC50 (T. cruzi amastigotes [1]; L6, in Rattus norvegicus) [µM] | nematocidal activity (Haemonchus contortus) | toxicity to the host cell [3] | IC50 against the amastigote form of the parasite (T. cruzi amastigotes [4]) | activity against T. cruzi (in words) (T. cruzi amastigotes [1])
COc1c2c(cc3ccoc13)C(=O)[C@@]1(O)c3cc4c(cc3OC[C@H]1O2)OCO4 (relative stereo) [Compound 29, 12a-hydroxypachyrhizone] | 1.3 | 93.2 | 125 |  |  |  |  | 
O=C1c2cc3ccoc3cc2O[C@@H]2COc3cc4c(cc3[C@]12O)OCO4 (relative stereo) [Compound 30, 12a-hydroxydolineone] | 0.7 | 195 | 141 |  |  |  |  | 
COc1cc2c(cc1OC)[C@]1(O)C(=O)c3cc4ccoc4cc3O[C@@H]1CO2 (relative stereo) [Compound 31, 12a-hydroxyerosone] | 5.7 | 19.7 | 113 |  |  |  |  | 
COc1cc2c(cc1OC)[C@@H]1C(=O)c3cc4ccoc4cc3O[C@@H]1CO2 (relative stereo) [Compound 32, erosone] | 2.9 | 39.3 | 115 |  |  |  |  | 
COc1cc2c(cc1OC)[C@]1(O)[C@H](OC(C)=O)c3ccc4occc4c3O[C@@H]1CO2 (relative stereo) [Compound 33, 12-deoxo-12α-acetoxy-12a-β-hydroxyelliptone] | 1.5 | 65.1 | 98.2 |  |  |  |  | 
CC(=O)OC1C2c3c(ccc4c3OC(c3ccccc3)CC4=O)OC2OC1(C)C (single isomer, unassigned; (-)) [Compound 11, (−)-purpurin] | 3.5 | 1.78 | 6.25 |  |  |  |  | 
O=C(Cn1ccnc1[N+](=O)[O-])NCc1ccccc1 [Benznidazole, reference compound] |  | 3.14 |  |  |  |  |  | 
COc1cc(O)ccc1[C@@H]1COc2cc(O)c(CC=C(C)C)cc2C1 [Compound 1, 2′-O-methylmanuifolin H] | 3.5 | 28.2 | 99 |  |  |  |  | 
CC(C)=CCc1cc2c(cc1O)OCC(c1ccc(O)cc1)C2O (stereo not shown) [Compound 2, bavaisoflavanol] | 1.1 | 43.1 | 49.5 |  |  |  |  | 
CC(C)=CCc1cc2c(cc1O)OC[C@@H](c1ccc(O)cc1O)C2 [Compound 3, manuifolin H] | 3.7 | 28.3 | 106 |  |  |  |  | 
COc1cc(O)ccc1C1COc2cc(O)ccc2C1 (stereo not shown) [Compound 4, 7,4′-dihydroxy-2′-methoxyisoflavan] | 1.4 | 247 | 358 |  |  |  |  | 
COc1cc2c(cc1C1COc3cc(O)ccc3C1)OCO2 (stereo not shown) [Compound 5, astraciceran] | 0.8 | 94.1 | 75.4 |  |  |  |  | 
COc1cc(O)ccc1C1COc2cc3c(cc2C1)CC(C(C)(C)O)O3 (stereo not shown) [Compound 6, 4-(2-(2-hydroxypropan-2-yl)-2,3,6,7-tetrahydro-5H-furo[3,2-g]chromen-6-yl)-3-methoxyphenol] | 0.8 | 203 | 154 |  |  |  |  | 
CC(C)=CCc1c(O)ccc(C(=O)/C=C/c2ccc(O)cc2)c1O [Compound 7, isobavachalcone] | 1.7 | 60.1 | 104 |  |  |  |  | 
COc1c(C(=O)/C=C(\O)c2ccccc2)ccc2occc12 [Compound 8, pongamol] | 2.7 | 26.8 | 73.6 |  |  |  |  | 
C=C(C)/C=C/c1c(OC)ccc2c1OC(c1ccccc1)CC2=O (stereo not shown) [Compound 9, dehydroisoderricin] | 1.4 | 66.2 | 95.4 |  |  |  |  | 
O=c1cc(-c2ccccc2)oc2c1ccc1occc12 [Compound 10, lanceolatin B] | 13.6 |  | 130 | 9.58 |  |  |  | 
CC(=O)OC(C1COc2ccc3c(c21)OC(c1ccc(O)cc1)CC3=O)C(C)(C)O (stereo not shown) [Compound 12, 2-hydroxy-1-(2-(4-hydroxyphenyl)-4-oxo-3,4,8,9-tetrahydro-2H-furo[2,3-h]chromen-9-yl)-2-methylpropyl acetate] | 1.7 | 58.8 | 99.4 |  |  |  |  | 
CC(=O)OC(C1COc2ccc3c(c21)OC(c1ccccc1)CC3=O)C(C)(C)O (stereo not shown) [Compound 13, 2-hydroxy-2-methyl-1-(4-oxo-2-phenyl-3,4,8,9-tetrahydro-2H-furo[2,3-h]chromen-9-yl)propyl acetate] | 1.1 | 123 | 131 |  |  |  |  | 
CC(C)(O)C(OC(=O)C=Cc1ccccc1)C1COc2ccc3c(c21)OC(c1ccccc1)CC3=O (stereo not shown) [Compound 14, 2-hydroxy-2-methyl-1-(4-oxo-2-phenyl-3,4,8,9-tetrahydro-2H-furo[2,3-h]chromen-9-yl)propyl cinnamate] | 5.1 | 16 | 81.6 |  |  |  |  | 
Oc1ccc2c(c1)OC[C@H]1c3cc4c(cc3O[C@@H]21)OCO4 [Compound 16, maackiain] | 1.3 | 119 | 156 |  |  |  |  | 

Compound | Selectivity index (T. cruzi amastigotes [1]) | IC50 (T. cruzi amastigotes [1]; [5]) [µM] | IC50 [2] [µM] | IC50 (T. cruzi amastigotes [1]; L6, in Rattus norvegicus) [µM] | nematocidal activity (Haemonchus contortus) | toxicity to the host cell [3] | IC50 against the amastigote form of the parasite (T. cruzi amastigotes [4]) | activity against T. cruzi (in words) (T. cruzi amastigotes [1])
C=C(C)[C@H]1Cc2cc3c(cc2O1)OC[C@H]1c2cc4c(cc2O[C@@H]31)OCO4 [Compound 17, emoroidocarpan] | 1.8 | 47.8 | 84.8 |  |  |  |  | 
C=C(CO)C1Cc2cc3c(cc2O1)OCC1c2cc4c(cc2OC31)OCO4 (stereo not drawn) [Compound 18, (2′R)-4′-hydroxyemoroidocarpan] | 2.9 | 40.1 | 118 |  |  |  |  | 
C=C(C)[C@H]1Cc2cc3c(cc2O1)oc(=O)c1c2cc4c(cc2oc31)OCO4 [Compound 19, tephcalostan] | 1.8 | 65.6 | 119 |  |  |  |  | 
CC1(C)C=Cc2c(ccc(-c3coc4cc(O)ccc4c3=O)c2O)O1 [Compound 20, glabrone] | 1.2 | 149 | 186 |  |  |  |  | 
CC1(C)C=Cc2c(ccc(-c3coc4cc(O)c(O)cc4c3=O)c2O)O1 [Compound 21, 5′,6,7-trihydroxy-2′,2′-dimethyl-2′H,4H-[3,6′-bichromen]-4-one] | 1.4 | 56.8 | 76.6 |  |  |  |  | 
COc1ccc(-c2coc3cc(O)ccc3c2=O)cc1 [Compound 22, formononetin] | 1.0 | 217 | 224 |  |  |  |  | 
COc1c(-c2coc3cc4c(cc3c2=O)C=CC(C)(C)O4)ccc2c1C=CC(C)(C)O2 [Compound 23, munetone] | 5.3 | 7.35 | 38.8 |  |  |  |  | 
COc1cc2occ(-c3ccc4c(c3)OCO4)c(=O)c2cc1O [Compound 24, acicerone] | 2.1 | 86.8 | 186 |  |  |  |  | 
COc1ccc(-c2coc3cc(OC)c(O)cc3c2=O)cc1 [Compound 25, alfalone] | 1.1 | 241 | 263 |  |  |  |  | 
CC(C)=CCc1c(O)cc2occ(-c3ccc(O)cc3)c(=O)c2c1O [Compound 27, wighteone] | 2.2 | 46.6 | 104 |  |  |  |  | 
COc1cc2c(cc1-c1coc3cc4occc4cc3c1=O)OCO2 [Compound 28, dehydroneotenone] | 5.1 | 3.59 | 18.3 |  |  |  |  | 
COc1cc2c(cc1OC)C1C(CO2)Oc2c(ccc3occc23)C1OC(C)=O (stereo not drawn) [Compound 34, 12-deoxo-12α-acetoxyelliptone] | 3.8 | 27.1 | 104 |  |  |  |  | 
COc1cc2c(cc1OC)[C@@H]1C(=O)c3ccc4occc4c3O[C@@H]1CO2 [Compound 35, elliptone] | 5.4 | 18.2 | 99 |  |  |  |  | 
COc1cc2c(cc1OC)[C@]1(O)C(=O)c3ccc4occc4c3O[C@@H]1CO2 [Compound 36, 12a-hydroxyelliptone] | 18.5 | 5.42 | 100 |  |  |  |  | 
C=C(C)[C@H]1Cc2c(ccc3c2O[C@@H]2COc4cc(OC)c(OC)cc4[C@@H]2C3=O)O1 [Compound 37, rotenone] | 51.7 |  | 0.48 | 0.01 | potent nematocidal activity | without toxicity | nanomolar | 
COc1cc2c(cc1OC)[C@]1(O)C(=O)c3ccc4c(c3O[C@@H]1CO2)C=CC(C)(C)O4 [Compound 38, tephrosin] | 1937.0 |  | 72.4 | 0.04 |  |  |  | 
COc1cc2c(cc1OC)[C@@H]1C(=O)c3ccc4c(c3O[C@@H]1CO2)C=CC(C)(C)O4 [Compound 39, deguelin] | 1148.5 | 0.02 | 19.4 |  | potent nematocidal activity | without toxicity | nanomolar | 
CC1(C)C=Cc2c(ccc3c(=O)c(-c4cc(O)c5c(c4)OCO5)coc23)O1 [Compound 40, norisojamaicin] | 5.7 | 21.8 | 123 |  |  |  |  | not active
COc1ccc(-c2coc3c4c(cc(O)c3c2=O)OC(C)(C)C=C4)cc1O [Compound 41, 3′-hydroxy-4′-O-metyhlerrone] | 6.9 | 8.04 | 55.7 |  |  |  |  | not active
COc1cc([C@@H]2c3cc4c(cc3[C@H](O)[C@H]3COC(=O)[C@H]23)OCO4)cc(OC)c1OC [Podophyllotoxin, reference compound] |  |  | 0.02 |  |  |  |  | 
